We go through 1 compound from patent US11117918B2, “Enzyme-directed immunostimulant and uses thereof” (Washington State University, priority 2016, dated 2021).

The test concerns RAW-Blue cells. The test can be described thus: Inverse RAW-Blue assay after conversion by α-Mannosidase or AT3B-1 cells. Format: cell-based. On the procedure: α-Mannosidase from Canavalia ensiformis (Jack bean) was used directly from the bottle to make a 1 U/mL stock solution in DPBS. Before administering the enzyme, the solution was filtered through a sterile 0.2 μm syringe filter to yield the working stock solution. 20 μL of the working stock solution was added to wells requiring exogenous enzyme to achieve a 0.1 U/mL α-Mannosidase concentration.
For inverse RAW-Blue assays, pro-immunostimulant (12) was first converted to Imiquimod by either exogenous α-Mannosidase (0.1 U/well) or via AT3B-1 cell metabolism prior to RAW-Blue exposure. To accomplish this, pro-immunostimulant (12) and controls were dosed at a concentration 10× the desired concentration to be administered to immune cells. For instance, to investigate the effects on RAW-Blue stimulation of a 10 μM dose of pro-immunostimulant […] the following steps would be taken: First, in an optically clear bottomed 96-well plate, wells were prepared to contain 180 μL of complete AT3B-1 cell media (without doxorubicin) and either α-Mannosidase or the desired AT3B-1 cell density (cells were given a minimum of 60 mins to adhere). Second, a 100 μM dose of (12) in DPBS was administered to the wells and total well volumes were adjusted to 200 μL with complete cell media (without doxorubicin). Cells were incubated (37° C., 5% CO2) for 24-72 h. […]

As to `CC(C)Cn1cnc2c(NC(=O)OCc3ccc(O[C@H]4O[C@H](CO)[C@@H](O)[C@H](O)[C@@H]4O)c([N+](=O)[O-])c3)nc3ccccc3c21` [compound 12], the “immunogenicity (RAW-Blue activation)” value (10 μM, exogenous α-Mannosidase and AT3B-1 driven conversion to Imiquimod) is given as “confers immunogenicity”. In addition, for the setting “without a conversion driver”, the RAW-Blue activity entry is “abrogated activity”.
